Here are results for two compounds from US20230167088A1, “1-PYRAZINYLPYRAZOLYL-3-OXYALKYL ACIDS AND THEIR DERIVATIVES, AND THEIR USE FOR CONTROL OF UNDESIRED PLANT GROWTH” (BAYER AKTIENGESELLSCHAFT, priority 2020, published 2023).

What all share (assay): Herbicidal pre-emergence action 2a (greenhouse pots, visual scoring)
One assay has as its system ALOMY. It is filed as in vivo, Alopecurus myosuroides. The settings on record: dosage 320 g/ha, visual scoring after about 3 weeks. The source says:
(§1) [table] a) Seeds of monocotyledonous and dicotyledonous weed plants and crop plants are placed in plastic or organic plant pots and covered with soil. The compounds of the invention, formulated in the form of wettable powders (WP) or as emulsion concentrates (EC), are then applied onto the surface of the covering soil as aqueous suspension or emulsion with addition of 0.5% additive at a water application rate of 600 1/ha (converted). After the treatment, the pots are placed in a greenhouse and kept under good growth conditions for the trial plants. After about 3 weeks, the effect of the preparations is scored visually in comparison with untreated controls as percentages. For example, 100% activity=the plants have died, 0% activity=like control plants. Tables B1 to B15 below show the effects of selected compounds of the general formula (I) according to Tables 1 and 2 on various harmful plants and an application rate corresponding to 320 g/ha and/or 80 g/ha, which were obtained by the experimental procedure mentioned above.

In the next assay the test system is AVEFA. It is filed as in vivo, Avena fatua. Particulars: dosage 320 g/ha, visual scoring after about 3 weeks.
From the text: as §1

The next assay deals with LOLRI. It is filed as in vivo, Lolium rigidum. The settings on record: dosage 320 g/ha, visual scoring after about 3 weeks vs untreated controls.
From the text: as §1

Another assay deals with AMARE. It is filed as in vivo, Amaranthus retroflexus. Particulars: dosage 320 g/ha, visual scoring after about 3 weeks vs untreated controls.
From the text: as §1

A further assay has as its system POLCO. It is filed as in vivo, Polygonum convolvulus. Particulars: dosage 320 g/ha, visual scoring after about 3 weeks vs untreated controls.
From the text: as §1

A further assay concerns VIOTR. It is filed as in vivo, Viola tricolor. The settings on record: dosage 320 g/ha, visual scoring after about 3 weeks vs untreated controls.
From the text: as §1

The next assay has as its system MATIN. It is filed as in vivo, Matricaria inodora. The settings on record: dosage 320 g/ha, visual scoring after about 3 weeks vs untreated controls.
From the text: as §1

As to `C[C@@H](Oc1nn(-c2nccnc2Cl)c(-c2ccc(F)nc2)c1Br)C(=O)O` [Example I-75], the “Pre-emergence action against ALOMY in %” value in the assay on ALOMY was determined as 100%. Besides, the “Pre-emergence action against AVEFA in %” value with AVEFA is 90%. The “Pre-emergence action against LOLRI in %” value with LOLRI is reported as 100%. Moreover, the “Pre-emergence action against AMARE in %” value in the assay with AMARE is 90%. Moreover, the “Pre-emergence action against POLCO in %” value in the assay on POLCO was 80%. The “Pre-emergence action against VIOTR in %” value with VIOTR is 80%.
As to `COC(=O)COc1nn(-c2nccnc2F)c(-c2ccc(F)nc2)c1Br` [Example I-77], the “Pre-emergence action against AMARE in %” value in the assay on AMARE was determined as 80%. In addition, the “Pre-emergence action against MATIN in %” value in the assay on MATIN was determined as 80%. Moreover, in the assay on VIOTR, the “Pre-emergence action against VIOTR in %” value came out at 80%.
